Experimental data as given in ChEMBL document CHEMBL6182864, “Design, synthesis and biological evaluation of 3-amino-6-(2-hydroxyphenyl)pyridazin-4-aryl derivatives as SMARCA2/4 degraders” (Eur J Med Chem, 2025).
Activity calls are given as the source filed them. The calls are words filed in the database; no cut-off is given here.

Tests used:
[1] = test system: MV4-11; assay: Down regulation of TRAP1 mRNA expression in human MV4-11 cells at 100 to 1000 nM measured after 24 hrs by RT-qPCR analysis; type: functional, cell-based; settings: dose 100-1000 nM
[2] = test system: MV4-11; assay: Down regulation of CDC25A mRNA expression in human MV4-11 cells at 100 to 1000 nM measured after 24 hrs by RT-qPCR analysis; type: functional, cell-based; settings: dose 100-1000 nM
[3] = test system: MOLM-13; assay: Induction of apoptosis in human MOLM-13 cells assessed as upregulation of cleaved caspase-3 expression measured after 72 hrs by Western blot analysis; type: functional, cell-based; settings: dose 100-1000 nM
[4] = test system: MOLM-13; assay: Induction of apoptosis in human MOLM-13 cells assessed as early apoptotic cells at 1000 nM measured after 72 hrs by Annexin-V-FITC/propidium iodide staining based flow cytometry (reference value: 5.57%); type: functional
[5] = test system: MOLM-13; assay: Induction of apoptosis in human MOLM-13 cells assessed as late apoptotic cells at 1000 nM measured after 72 hrs by Annexin-V-FITC/propidium iodide staining based flow cytometry (reference value: 3.87%); type: functional
[6] = test system: MV4-11; assay: Down regulation of MYC protein expression in human MV4-11 cells at 11.1 to 1000 nM measured after 24 hrs by Western blot analysis; type: functional, cell-based; settings: dose 11.1-1000 nM
[7] = test system: MV4-11; assay: Induction of apoptosis in human MV4-11 cells assessed as late apoptotic cells at 100 nM measured after 72 hrs by Annexin-V-FITC/propidium iodide staining based flow cytometry (reference value: 1.09%); type: functional
[8] = test system: MOLM-13; assay: Induction of apoptosis in human MOLM-13 cells assessed as necrotic cells at 1000 nM measured after 72 hrs by Annexin-V-FITC/propidium iodide staining based flow cytometry (reference value: 0.28%); type: functional
[9] = test system: SUD4; assay: cells; settings: Homo sapiens, SU-DHL-4, 72 h
[10] = test system: A2780; assay: cells; settings: Homo sapiens, A2780, 72 h
[11] = test system: MV4-11; assay: Induction of apoptosis in human MV4-11 cells assessed as viable cells at 100 nM measured after 72 hrs by Annexin-V-FITC/propidium iodide staining based flow cytometry (reference value: 89.49%); type: functional; settings: read-out: Activity
[12] = test system: MV4-11; assay: Down regulation of TRAP1 mRNA expression in human MV4-11 cells at 11.1 to 33.3 nM measured after 24 hrs by RT-qPCR analysis; type: functional, cell-based; settings: dose 11.1-33.3 nM
[13] = test system: MOLM-13; assay: Induction of apoptosis in human MOLM-13 cells assessed as early apoptotic cells at 100 nM measured after 72 hrs by Annexin-V-FITC/propidium iodide staining based flow cytometry (reference value: 5.57%); type: functional
[14] = test system: MOLM-13; assay: Induction of apoptosis in human MOLM-13 cells assessed as late apoptotic cells at 100 nM measured after 72 hrs by Annexin-V-FITC/propidium iodide staining based flow cytometry (reference value: 3.87%); type: functional
[15] = MRT (0 to t) in SPF Sprague-Dawley rat at 1 mg/kg, iv by LC-MS/MS analysis; type: ADME, organism-based; settings: in vivo
[16] = test system: MV4-11; assay: Induction of apoptosis in human MV4-11 cells assessed as early apoptotic cells at 300 nM measured after 72 hrs by Annexin-V-FITC/propidium iodide staining based flow cytometry (reference value: 9.32%); type: functional
[17] = test system: MOLM-13; assay: Induction of apoptosis in human MOLM-13 cells assessed as late apoptotic cells at 300 nM measured after 72 hrs by Annexin-V-FITC/propidium iodide staining based flow cytometry (reference value: 3.87%); type: functional
[18] = Half life in SPF Sprague-Dawley rat at 10 mg/kg, po by LC-MS/MS analysis; type: ADME, organism-based; settings: in vivo
[19] = MRT (0 to t) in SPF Sprague-Dawley rat at 10 mg/kg, po by LC-MS/MS analysis; type: ADME, organism-based; settings: in vivo
[20] = test system: MOLM-13; assay: Induction of apoptosis in human MOLM-13 cells assessed as viable cells at 300 nM measured after 72 hrs by Annexin-V-FITC/propidium iodide staining based flow cytometry (reference value: 90.28%); type: functional; settings: read-out: Activity
[21] = test system: MOLM-13; assay: Cell cycle arrest in human MOLM-13 cells assessed as increase in accumulation of cells at G0/G1 phase measured after 48 hrs by propidium iodide staining based flow cytometry; type: functional; settings: dose 100-1000 nM
[22] = test system: MV4-11; assay: Induction of apoptosis in human MV4-11 cells assessed as early apoptotic cells at 100 nM measured after 72 hrs by Annexin-V-FITC/propidium iodide staining based flow cytometry (reference value: 9.32%); type: functional
[23] = AUC (0 to t) in SPF Sprague-Dawley rat at 1 mg/kg, iv by LC-MS/MS analysis; type: ADME, organism-based; settings: in vivo
[24] = test system: MDA-MB-231; assay: cells; settings: Homo sapiens, MDA-MB-231, 72 h
[25] = test system: MOLM-13; assay: cells; settings: Homo sapiens, MOLM-13, 72 h
[26] = test system: MOLM-13; assay: Induction of apoptosis in human MOLM-13 cells assessed as early apoptotic cells at 300 nM measured after 72 hrs by Annexin-V-FITC/propidium iodide staining based flow cytometry (reference value: 5.57%); type: functional
[27] = test system: MV4-11; assay: Down regulation of MYC mRNA expression in human MV4-11 cells measured after 24 hrs by RT-qPCR analysis; type: functional, cell-based; settings: dose 11.1-1000 nM
[28] = test system: MV4-11; assay: Down regulation of […] mRNA expression in human MV4-11 cells at 100 to 1000 nM measured after 24 hrs by RT-qPCR analysis; type: functional, cell-based; settings: dose 100-1000 nM

Cc1ncsc1-c1ccc([C@H](C)NC(=O)[C@@H]2C[C@@H](O)CN2C(=O)[C@@H](NC(=O)C2(c3ccc(-c4cc(-c5ccccc5O)nnc4N)cc3)CC2)C(C)(C)C)cc1
Activity [1]: Active | Activity [2]: Active | Activity [3]: Dose-dependent-effect | Activity [4]: 57.3% | Activity [5]: 16.77% | Activity [6]: Active | Activity [7]: 18.96% | Activity [8]: 0.24% | IC50 [9]: 88 nM | IC50 [10]: 1790 nM | viability at 0.1 µM [11]: 32.3% | Activity [12]: inactive | Activity [13]: 38.84% | Activity [14]: 6.91% | MRT last [15]: 42 min | Activity [16]: 54.11% | Activity [17]: 14.39% | half-life [18]: 126 min | MRT last [19]: 48.6 min | viability at 0.3 µM [20]: 27.1% | Activity [21]: Dose-dependent-effect | Activity [22]: 47.5% | AUCt [23]: 358 ng·h/mL | IC50 [24]: 24300 nM | IC50 [25]: 23 nM | Activity [26]: 58.21% | Activity [27]: Dose-dependent-effect | Activity [28]: Active
